Counter-ions that a name gives are not always drawn.
Each compound was assayed against Human complement C1s enzyme (Homo sapiens (Human), UniProt P09871) (assay: Human C1s enzyme assay). Settings: Human C1s enzyme assay of Example 3; read-out: IC50 (Stars).
Type: biochemical
Method: Human complement C1s enzyme (purified from human serum, Complement Technology, Inc.) at 1.16 nM final concentration was incubated with test compound at various concentrations for 5 min at room temperature in 50 mM Tris, 1 M NaCl, pH 7.5. A synthetic substrate Z-L-Lys-SBzl and DTNB (Ellman's reagent) were added to final concentrations of 100 μM each. Absorbance at 405 nm (A405) was recorded at 30 second intervals for 30 min using a microplate spectrophotometer. IC50 values were calculated by nonlinear regression of complement C1s reaction rates as a function of test compound concentration.

Human complement C1s enzyme, sequence (P09871 438-688 limits assumed): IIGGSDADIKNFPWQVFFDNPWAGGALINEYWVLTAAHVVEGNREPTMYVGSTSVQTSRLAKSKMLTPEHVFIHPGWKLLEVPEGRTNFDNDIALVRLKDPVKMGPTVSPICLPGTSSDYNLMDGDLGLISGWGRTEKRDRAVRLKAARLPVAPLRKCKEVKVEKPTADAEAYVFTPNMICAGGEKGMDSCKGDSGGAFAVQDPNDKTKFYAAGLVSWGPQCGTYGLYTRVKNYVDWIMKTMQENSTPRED
Human complement C1s enzyme, sequence (P09871 16-437 partner limits assumed): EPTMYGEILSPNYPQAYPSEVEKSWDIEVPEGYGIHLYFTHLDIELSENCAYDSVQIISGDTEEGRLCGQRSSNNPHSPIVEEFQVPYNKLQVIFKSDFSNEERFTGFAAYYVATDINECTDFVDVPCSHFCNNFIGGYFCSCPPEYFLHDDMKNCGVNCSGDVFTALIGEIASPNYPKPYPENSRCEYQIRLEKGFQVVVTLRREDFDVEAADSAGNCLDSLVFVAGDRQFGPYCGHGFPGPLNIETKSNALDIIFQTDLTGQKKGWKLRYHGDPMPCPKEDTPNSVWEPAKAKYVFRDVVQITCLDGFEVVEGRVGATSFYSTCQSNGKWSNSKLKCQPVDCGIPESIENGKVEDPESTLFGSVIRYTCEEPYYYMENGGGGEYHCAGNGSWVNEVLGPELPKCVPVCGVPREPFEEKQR

IC50, < 100 nM:
C[C@@H](NC(=O)[C@@H]1C[C@@H](OC(F)F)CN1C(=O)CNC(=O)c1ccc(Oc2ccc(C3CC3)cc2)cc1)c1cc(C(=N)N)cs1 [Compound 64, (2S,4R)—N—((R)-1-(4-carbamimidoylthiophen-2-yl)ethyl)-1-((4-(4-cyclopropylphenoxy)benzoyl)glycyl)-4-(difluoromethoxy)pyrrolidine-2-carboxamide hydrochloride]
COC[C@@]1(F)C[C@@H](C(=O)NCc2cc(C(=N)N)cs2)N(C(=O)CNC(=O)c2ccc3c(c2)-c2ccccc2C3(F)F)C1 [Compound 58, (2S,4R)—N-((4-carbamimidoylthiophen-2-yl)methyl)-1-((9,9-difluoro-9H-fluorene-3-carbonyl)glycyl)-4-fluoro-4-(methoxymethyl)pyrrolidine-2-carboxamide]
Cc1cc(C(=O)NCC(=O)N2C[C@@](F)(CF)C[C@H]2C(=O)N[C@H](C)c2cc(C(=N)N)cs2)ccc1Oc1ccccc1 [Compound 32, (2S,4R)—N—((R)-1-(4-carbamimidoylthiophen-2-yl)ethyl)-4-fluoro-4-(fluoromethyl)-1-((3-methyl-4-phenoxybenzoyl)glycyl)pyrrolidine-2-carboxamide]
CS(=O)(=O)c1ccc(-c2ccc(C(=O)NCC(=O)N3CC4(C[C@H]3C(=O)NCc3cc(C(=N)N)cs3)OCCO4)cc2)cc1 [Compound 183, (S)—N-((4-carbamimidoylthiophen-2-yl)methyl)-7-((4′-(methylsulfonyl)-[1,1′-biphenyl]-4-carbonyl)glycyl)-1,4-dioxa-7-azaspiro[4.4]nonane-8-carboxamide]

Same assay, conditions: Human complement C1s enzyme 1.16 nM, substrate Z-L-Lys-SBzl 100 μM, assay of Example 3; read-out: IC50 (Stars)

IC50, < 100 nM:
C[C@@H](NC(=O)[C@@H]1C[C@@H](F)CN1C(=O)CNC(=O)c1ccc2c(c1)-c1ccccc1C2(F)F)c1cc(C(=N)N)cs1 [Compound 202, (2S,4R)—N—((R)-1-(4-carbamimidoylthiophen-2-yl)ethyl)-1-((9,9-difluoro-9H-fluorene-3-carbonyl)glycyl)-4-fluoropyrrolidine-2-carboxamide]
C[C@@H](NC(=O)[C@@H]1C[C@@H](OC(F)F)CN1C(=O)CNC(=O)c1ccc2c(c1)C(C)(C)c1ccccc1-2)c1cc(C(=N)N)cs1 [Compound 348, (2S,4R)-N-((R)-1-(4-carbamimidoylthiophen-2-yl)ethyl)-4-(difluoromethoxy)-1-((9,9-dimethyl-9H-fluorene-2-carbonyl)glycyl) pyrrolidine-2-carboxamide]
N=C(N)c1csc(CNC(=O)[C@@H]2CC3(CN2C(=O)CNC(=O)c2ccc(-c4cc(Cl)cc(Cl)c4)cc2)OCCO3)c1 [Compound 208, (S)—N-((4-carbamimidoylthiophen-2-yl)methyl)-7-((3′,5′-dichloro-[1,1′-biphenyl]-4-carbonyl)glycyl)-1,4-dioxa-7-azaspiro[4.4]nonane-8-carboxamide]
C[C@@H](NC(=O)[C@@H]1C[C@]2(COCCN)C[C@@H]2N1C(=O)CNC(=O)c1ccc2c(c1)-c1ccccc1C2(F)F)c1cc(C(=N)N)cs1 [Compound 313, (1S,3S,5R)-5-((2-aminoethoxy)methyl)-N—((R)-1-(4-carbamimidoylthiophen-2-yl)ethyl)-2-((9,9-difluoro-9H-fluorene-3-carbonyl)glycyl)-2-azabicyclo[3.1.0]hexane-3-carboxamide]
Cc1ccc(-c2ccc3c(c2)CN(CC(=O)N2CC4(C[C@H]2C(=O)NCc2cc(C(=N)N)cs2)OCCO4)C3=O)c(C)c1 [Compound 240, (S)—N-((4-carbamimidoylthiophen-2-yl)methyl)-7-(2-(5-(2,4-dimethylphenyl)-1-oxoisoindolin-2-yl)acetyl)-1,4-dioxa-7-azaspiro[4.4]nonane-8-carboxamide]

— patent US20250346585A1 (Alexion Pharmaceuticals, Inc., priority 2022, published 2025)
